Where only a bound is given, the exact number is not on record here.

Assay type in all cases: cell-based
Experiment [1] has as its target T1, human P2X7 (Homo sapiens (Human), UniProt Q99572). Nature of the experiment: P2X7 antagonism in human PBMCs (IL-1β release after LPS + Bz-ATP, ELISA). The following applies: human PBMCs; for PBMC 1 μM (% control): test compound 1 μM.
Experiment [2] addresses T1, human P2X7. Kind of experiment: Ca2+ flux (FLIPR) in 1321N1 cells expressing recombinant human P2X7.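 Further: cells loaded with Calcium-4 dye, preincubated with test compound for 30 min, fluorescence change read 180 s after agonist addition.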 The following applies: 1321N1 cells, recombinant human P2X7, 250 μM BzATP.
Procedure: P2X7 Antagonism in Recombinant Human P2X7 Cells or Recombinant Rat P2X7 Cells: (a) Ca^2+ Flux and (b) Radioligand Binding
1321N1 cells expressing the recombinant human or rat P2X7 channel was cultured in HyQ DME/(HyClone/Dulbecco's Modified Eagle Medium) high glucose supplemented with 10% Fetal Bovine Serum (FBS) and appropriate selection marker. Cells were seeded at a density of 25000 cells/well (96-well clear bottom black walled plates) in 100 μl volume/well. On the day of the experiment, cell plates were washed with assay buffer, containing (in mM): 130 NaCl, 2 KCl, 1 CaCl2, 1 MgCl2, 10 HEPES, 5 glucose; pH 7.40 and 300 mOs. After the wash, cells were loaded with the Calcium-4 dye (Molecular Device) and incubated in the dark for 60 minutes. Test compounds were prepared at 250× the test concentration in neat DMSO. Intermediate 96-well compound plates were prepared by transferring 1.2 μL of the compound into 300 μL of assay buffer. A further 3× dilution occurred when transferring 50 μL/well of the compound plate to 100 μL/well in the cell plate. Cells were incubated with test compounds and dye for 30 minutes. […] The fluorescence change was measured 180 seconds after adding the agonist.
Experiment [3] deals with rat P2X7 (Rattus norvegicus (Rat), UniProt Q64663). Nature of the experiment: Ca2+ flux (FLIPR) in 1321N1 cells expressing recombinant rat P2X7.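 Further: Calcium-4 dye fluorescence change read 180 s after agonist addition, with cells preincubated 30 min with compound and dye in 96-well plates.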
Where [4] appears, read: 1321N1 cells, recombinant rat P2X7, 250 μM BzATP.

Chain of rat P2X7 (Q64663 whole entry): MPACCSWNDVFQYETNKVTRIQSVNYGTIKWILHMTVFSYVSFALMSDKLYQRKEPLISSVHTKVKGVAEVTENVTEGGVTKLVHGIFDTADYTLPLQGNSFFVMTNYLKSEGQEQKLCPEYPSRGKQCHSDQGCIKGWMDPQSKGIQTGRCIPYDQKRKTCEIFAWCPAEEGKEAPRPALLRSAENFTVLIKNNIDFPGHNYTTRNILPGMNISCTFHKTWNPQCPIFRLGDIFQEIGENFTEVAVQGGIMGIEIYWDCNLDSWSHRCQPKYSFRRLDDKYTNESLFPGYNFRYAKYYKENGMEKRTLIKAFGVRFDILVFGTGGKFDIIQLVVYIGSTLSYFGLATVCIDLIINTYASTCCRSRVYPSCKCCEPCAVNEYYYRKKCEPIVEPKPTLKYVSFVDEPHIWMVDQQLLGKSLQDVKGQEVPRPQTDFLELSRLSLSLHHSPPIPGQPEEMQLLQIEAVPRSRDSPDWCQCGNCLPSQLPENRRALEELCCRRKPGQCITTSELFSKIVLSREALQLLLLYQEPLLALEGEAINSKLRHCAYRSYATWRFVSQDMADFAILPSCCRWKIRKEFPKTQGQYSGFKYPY
T1 sequence (Q99572 whole entry): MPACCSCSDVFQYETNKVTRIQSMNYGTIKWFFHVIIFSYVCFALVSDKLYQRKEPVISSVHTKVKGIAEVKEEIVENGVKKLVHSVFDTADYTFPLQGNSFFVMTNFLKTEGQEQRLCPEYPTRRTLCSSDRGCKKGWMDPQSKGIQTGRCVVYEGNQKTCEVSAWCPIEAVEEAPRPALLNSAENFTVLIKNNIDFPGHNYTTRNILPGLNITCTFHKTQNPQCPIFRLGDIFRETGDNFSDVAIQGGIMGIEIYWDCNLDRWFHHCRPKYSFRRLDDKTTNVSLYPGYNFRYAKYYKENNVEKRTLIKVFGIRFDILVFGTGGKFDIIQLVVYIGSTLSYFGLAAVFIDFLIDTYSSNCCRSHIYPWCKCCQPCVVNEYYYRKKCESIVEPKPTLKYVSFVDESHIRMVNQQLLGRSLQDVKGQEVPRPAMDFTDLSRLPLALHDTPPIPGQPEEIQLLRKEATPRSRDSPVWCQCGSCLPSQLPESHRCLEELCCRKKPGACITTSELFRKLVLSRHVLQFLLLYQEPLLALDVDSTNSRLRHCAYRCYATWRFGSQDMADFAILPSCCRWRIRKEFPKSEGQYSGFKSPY

Take `Cc1c(C(=O)N2Cc3nnn(-c4ccn[nH]4)c3C[C@@H]2C)cccc1C(F)(F)F` (single isomer, unassigned) [Example 347, (S*)-(6-methyl-1-(1H-pyrazol-3-yl)-6,7-dihydro-1H-[1,2,3]triazolo[4,5-c]pyridin-5(4H)-yl)(2-methyl-3-(trifluoromethyl)phenyl)methanone]: the “PBMC 10 μM (% control)” value in experiment [1] (test compound 10 μM) came out at 2.0 % control. The IC50 was determined as 1200 nM in experiment [2] and 324 nM in experiment [3] (setting [4]). The like results for `Cc1cc(-n2nnc3c2CCN(C(=O)c2cc(Cl)cc(C(F)(F)F)c2)[C@@H]3C)ncc1F` (single isomer, unassigned) [Example 362, (R*)-(3-chloro-5-(trifluoromethyl)phenyl)(1-(5-fluoro-4-methylpyridin-2-yl)-4-methyl-6,7-dihydro-1H-[1,2,3]triazolo[4,5-c]pyridin-5(4H)-yl)methanone] were, in that order, 90.2 % control, over 10000 nM and over 10000 nM.

In the case of `Cc1ccnc(-n2nnc3c2CCN(C(=O)c2cccc(OC(F)(F)F)c2)C3C)c1` (single isomer, unassigned) [Example 377, (S*)-(4-methyl-1-(4-methylpyridin-2-yl)-6,7-dihydro-1H-[1,2,3]triazolo[4,5-c]pyridin-5(4H)-yl)(3-(trifluoromethoxy)phenyl)methanone], the “PBMC 10 μM (% control)” value in experiment [1] (test compound 10 μM) is listed as 8.1 % control. Moreover, in experiment [2], the IC50 came out at 5510 nM.

Regarding `O=C(c1cccc(C(F)(F)F)c1Cl)N1CCc2c(ncn2-c2ccccn2)C1` [Example 1, (2-Chloro-3-(trifluoromethyl)phenyl)(1-(pyridin-2-yl)-6,7-dihydro-1H-imidazo[4,5-c]pyridin-5(4H)-yl)methanone], the IC50 in experiment [2] was 4.1 nM.

As to `CCC1c2ncn(-c3cnccn3)c2CCN1C(=O)c1cccc(C(F)(F)F)c1Cl` (stereo not shown) [Example 15, (2-Chloro-3-(trifluoromethyl)phenyl)(4-ethyl-1-(pyrazin-2-yl)-6,7-dihydro-1H-imidazo[4,5-c]pyridin-5(4H)-yl)methanone], the “PBMC 1 μM (% control)” value in experiment [1] is 9.1 % control. Further, in experiment [2], the IC50 worked out at 81.4 nM.

As for `CC1c2ncn(-c3ncccc3F)c2CCN1C(=O)c1cccc(C(F)(F)F)c1Cl` (stereo not shown) [Example 21, (2-Chloro-3-(trifluoromethyl)phenyl)(1-(3-fluoropyridin-2-yl)-4-methyl-6,7-dihydro-1H-imidazo[4,5-c]pyridin-5(4H)-yl)methanone], the “PBMC 10 μM (% control)” value in experiment [1] (test compound 10 μM) worked out at 1.6 % control. In addition, the IC50 in experiment [2] came to 90 nM. For `CCOC(=O)C1c2ncn(-c3ccccn3)c2CCN1C(=O)c1cccc(Cl)c1Cl` (stereo not shown) [Example 25, Ethyl 5-(2,3-dichlorobenzoyl)-1-(pyridin-2-yl)-4,5,6,7-tetrahydro-1H-imidazo[4,5-c]pyridine-4-carboxylate], in experiment [1], the “PBMC 1 μM (% control)” value is recorded as 9.7 % control. The concentration for half-maximal inhibition (IC50) in experiment [2] came to 142 nM. In the case of `CCOC(=O)C1c2ncn(-c3cnccn3)c2CCN1C(=O)c1cccc(Cl)c1Cl` (stereo not shown) [Example 29, Ethyl 5-[(2,3-dichlorophenyl)carbonyl]-1-pyrazin-2-yl-4,5,6,7-tetrahydro-1H-imidazo[4,5-c]pyridine-4-carboxylate], the results for the IC50 in experiment [2] and in experiment [3] (setting [4]) were 62 nM and 2500 nM, respectively. For `O=C(C1c2ncn(-c3ccccn3)c2CCN1C(=O)c1cccc(C(F)(F)F)c1Cl)N1CCC1` (stereo not shown) [Example 35, 4-(Azetidin-1-ylcarbonyl)-5-{[2-chloro-3-(trifluoromethyl)phenyl]carbonyl}-1-pyridin-2-yl-4,5,6,7-tetrahydro-1H-imidazo[4,5-c]pyridine], in that order: 348 nM and 235 nM. With `O=C(OCC1c2ncn(-c3ccccc3)c2CCN1C(=O)c1cccc(C(F)(F)F)c1Cl)c1cccc(C(F)(F)F)c1Cl` (stereo not shown) [Example 36, (5-{[2-Chloro-3-(trifluoromethyl)phenyl]carbonyl}-1-phenyl-4,5,6,7-tetrahydro-1H-imidazo[4,5-c]pyridin-4-yl)methyl 2-chloro-3-(trifluoromethyl)benzoate], the IC50 in experiment [2] came out at 3390 nM.

For the molecule `O=C(c1cccc(C(F)(F)F)c1Cl)N1CCc2c(nnn2-c2ncc(F)cn2)C1` [Example 64, 5-{[2-Chloro-3-(trifluoromethyl)phenyl]carbonyl}-1-(5-fluoropyrimidin-2-yl)-4,5,6,7-tetrahydro-1H-[1,2,3]triazolo[4,5-c]pyridine], the “PBMC 10 μM (% control)” value in experiment [1] (test compound 10 μM) is −9.2 % control. Further, the IC50 in experiment [2] stood at 22.8 nM. As to `O=C(c1cccc(C(F)(F)F)c1Cl)N1CCc2c(nnn2-c2ccn[nH]2)C1` [Example 68, 5-{[2-Chloro-3-(trifluoromethyl)phenyl]carbonyl}-1-(1H-pyrazol-5-yl)-4,5,6,7-tetrahydro-1H-[1,2,3]triazolo[4,5-c]pyridine], the IC50 amounted to 39.4 nM in experiment [2] and 210 nM in experiment [3] (setting [4]). For `CC1c2ncn(-c3ccc(F)cn3)c2CCN1C(=O)c1ccc(F)cc1Cl` (stereo not shown) [Example 256, (2-chloro-4-fluorophenyl)(1-(5-fluoropyridin-2-yl)-4-methyl-6,7-dihydro-1H-imidazo[4,5-c]pyridin-5(4H)-yl)methanone], the “PBMC 10 μM (% control)” value in experiment [1] (test compound 10 μM) is given as 7.1 % control. In addition, the IC50 in experiment [2] was found to be 4370 nM. For `CC1c2ncn(-c3ccc(F)cn3)c2CCN1C(=O)c1ccc(F)c(Cl)c1Cl` (stereo not shown) [Example 261, (2,3-dichloro-4-fluorophenyl)(1-(5-fluoropyridin-2-yl)-4-methyl-6,7-dihydro-1H-imidazo[4,5-c]pyridin-5(4H)-yl)methanone], in that order: −3.1 % control and 29.3 nM. For `Cc1c(C(=O)N2CCc3c(ncn3-c3ccc(F)cn3)C2C)cccc1C(F)(F)F` (stereo not shown) [Example 263, (1-(5-fluoropyridin-2-yl)-4-methyl-6,7-dihydro-1H-imidazo[4,5-c]pyridin-5(4H)-yl)(2-methyl-3-(trifluoromethyl)phenyl)methanone], in that order: −1.6 % control and 17.5 nM.

As to `Cc1c(C(=O)N2CCc3c(ncn3-c3ccc(F)cn3)C2)cccc1C(F)(F)F` [Example 312, (1-(5-fluoropyridin-2-yl)-6,7-dihydro-1H-imidazo[4,5-c]pyridin-5(4H)-yl)(2-methyl-3-(trifluoromethyl)phenyl)methanone], the “PBMC 10 μM (% control)” value in experiment [1] (test compound 10 μM) is given as 9.5 % control. Besides, the IC50 in experiment [2] was 114 nM. The like results for `O=C(c1ccc(Cl)cc1Cl)N1CCc2c(ncn2-c2ccc(F)cn2)C1` [Example 313, (2,4-dichlorophenyl)(1-(5-fluoropyridin-2-yl)-6,7-dihydro-1H-imidazo[4,5-c]pyridin-5(4H)-yl)methanone] were, in that order, −5.4 % control and 880 nM. For the molecule `O=C(c1cccc(C(F)(F)F)c1F)N1CCc2c(ncn2-c2ccc(F)cn2)C1` [Example 314, (2-fluoro-3-(trifluoromethyl)phenyl)(1-(5-fluoropyridin-2-yl)-6,7-dihydro-1H-imidazo[4,5-c]pyridin-5(4H)-yl)methanone], in experiment [2], the IC50 was 3540 nM. In the case of `Cc1cc(-n2nnc3c2CCN(C(=O)c2ccc(Cl)c(C(F)(F)F)c2)C3C)ncc1F` (stereo not shown) [Example 364, (4-chloro-3-(trifluoromethyl)phenyl)(1-(5-fluoro-4-methylpyridin-2-yl)-4-methyl-6,7-dihydro-1H-[1,2,3]triazolo[4,5-c]pyridin-5(4H)-yl)methanone], the “PBMC 10 μM (% control)” value in experiment [1] (test compound 10 μM) is 4.8 % control. The concentration for half-maximal inhibition (IC50) in experiment [3] (setting [4]) came to 5790 nM. On to `Cc1ccnc(-n2nnc3c2CCN(C(=O)c2cccc(OC(F)(F)F)c2)C3C)c1` (stereo not shown) [Example 375, (4-methyl-1-(4-methylpyridin-2-yl)-6,7-dihydro-1H-[1,2,3]triazolo[4,5-c]pyridin-5(4H)-yl)(3-(trifluoromethoxy)phenyl)methanone], for which, in experiment [1] (test compound 10 μM), the “PBMC 10 μM (% control)” value is 63.3 % control. The IC50 in experiment [2] is over 10000 nM. Take `Cc1cc(-n2nnc3c2CCN(C(=O)c2cccc(C(F)(F)F)c2Cl)C3C)ncc1F` (stereo not shown) [Example 381, (2-chloro-3-(trifluoromethyl)phenyl)(1-(5-fluoro-4-methylpyridin-2-yl)-4-methyl-6,7-dihydro-1H-[1,2,3]triazolo[4,5-c]pyridin-5(4H)-yl)methanone]: the “PBMC 10 μM (% control)” value in experiment [1] (test compound 10 μM) came to 4.1 % control. The IC50 in experiment [3] (setting [4]) amounted to 234 nM. For `Cc1cccc(-n2nnc3c2CCN(C(=O)c2cccc(C(F)(F)F)c2F)C3C)n1` (stereo not shown) [Example 385, (2-fluoro-3-(trifluoromethyl)phenyl)(4-methyl-1-(6-methylpyridin-2-yl)-6,7-dihydro-1H-[1,2,3]triazolo[4,5-c]pyridin-5(4H)-yl)methanone], in that order: 12.4 % control and 57.8 nM. On to `Cc1ccnc(-n2nnc3c2CCN(C(=O)c2cccc(Cl)c2C)C3C)c1` (stereo not shown) [Example 388, (3-chloro-2-methylphenyl)(4-methyl-1-(4-methylpyridin-2-yl)-6,7-dihydro-1H-[1,2,3]triazolo[4,5-c]pyridin-5(4H)-yl)methanone], for which the “PBMC 10 μM (% control)” value in experiment [1] (test compound 10 μM) was −18.8 % control. The IC50 in experiment [3] (setting [4]) was 2280 nM. In the case of `Cc1cc(-n2nnc3c2CCN(C(=O)c2cccc(C(F)(F)F)c2Cl)C3C)ncn1` (stereo not shown) [Example 402, (2-chloro-3-(trifluoromethyl)phenyl)(4-methyl-1-(6-methylpyrimidin-4-yl)-6,7-dihydro-1H-[1,2,3]triazolo[4,5-c]pyridin-5(4H)-yl)methanone], the “PBMC 10 μM (% control)” value in experiment [1] (test compound 10 μM) came out at 0.3 % control. Also, the IC50 in experiment [2] came out at 879 nM. As to `CC1c2n[nH]c(-c3cnccn3)c2CCN1C(=O)c1cccc(C(F)(F)F)c1Cl` (stereo not shown) [Example 438, (2-chloro-3-(trifluoromethyl)phenyl)(7-methyl-3-(pyrazin-2-yl)-4,5-dihydro-2H-pyrazolo[3,4-c]pyridin-6(7H)-yl)methanone], the “PBMC 10 μM (% control)” value in experiment [1] (10 μM test compound, LPS + Bz-ATP) is −10.8 % control. For the same molecule, the IC50 in experiment [3] (Ca2+ flux, 250 μM BzATP, rat P2X7 1321N1 cells) was 482 nM.

For the origin of these results see US10112937B2, “P2X7 modulators and methods of use” (Janssen Pharmaceutica NV, priority 2013, dated 2018).
